This data set is described as follows: gradient 5% acetonitrile 3 min, to 50% in 2 min, to 85% in 15 min, held 3 min, 100 µL/min. As to conditions: column: Zorbax Extend-C18 2.1 x 50 mm; eluents: water / acetonitrile, 0.1% formic acid. The gist of the method:
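Pure standards were run in mixtures of ~100 molecules by HPLC coupled to a quadrupole time-of-flight mass spectrometer. The column was a Zorbax Extend-C18 (2.1 × 50 mm, 1.8 μm) at 100 μL/min, with water and acetonitrile each containing 0.1% formic acid, in positive and negative ionization mode. Dead and dwell volumes were 40 μL and 900 μL. Retention time was taken from computationally picked adduct peaks, each manually inspected, with data collected over 3 months.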
`CN(C)C[C@@H]1CN(c2ncccn2)C[C@H]1NS(=O)(=O)Cc1ccccc1` yielded an RP-LC retention time of 601 s.
For `COc1cccc(C(=O)N2CCN(c3ccc(=O)n(-c4ccc(Cl)cc4)n3)CC2)c1` the value was 853 s; for `COC(=O)c1cc(S(=O)(=O)N2CCCC2C(=O)Nc2ccc(F)cc2F)cn1C` (stereo not given), 875 s; for `CCCNC(=O)C1CCCN(c2ccc(SCC(=O)Nc3c(C)cccc3C)nn2)C1` (stereo not given), 651 s.
As to `CC(C)Oc1ccc(CNC(=O)CCCN2C(=O)CCn3nc(-c4cccn4C)cc32)cc1`, the RP-LC retention time came to 833 s.
The result for `CC(=O)N1c2ccc(S(=O)(=O)N3CCCC3)cc2CC1C(=O)NCCc1ccccc1C` (stereo not given) reads 848 s.
For `CCOc1ccc(N2CC(C#N)=C3c4cc(OC)c(OC)cc4CCN3C2)cc1` the value was 848 s; for `CC1(C)CC(=O)C(CC(=O)c2ccccc2)=C(NN=C(N)N)C1`, 666 s.
In the case of `Cc1nc(NC(=O)CN(C)c2nc3c(C)ccc(C)c3s2)sc1C(=O)N(C)C`, the RP-LC retention time was 803 s.
For `O=C(CCCn1nnc2ccccc2c1=O)Nc1nc2ccccc2[nH]1` the value was 570 s; for `COc1ccc(C2CC(=O)N(c3ccc(F)c(C)c3)C(=O)C2)cc1`, 930 s; for `CN(CCc1ccccn1)C(=O)C1CCN(c2cn[nH]c(=O)c2)CC1`, 536 s.
For `O=C(NCCc1noc(C2CC2)n1)c1cccs1`, the RP-LC retention time was 700 s.
In turn, `CC(C)C(=O)n1nc(-c2ccccc2Cl)nc1N` returned an RP-LC retention time of 898 s.
The result for `Cc1onc(-c2ccc(F)cc2F)c1C(=O)NC(C)C` reads 789 s.
The molecule `CC1(C)C(=O)N(CCN2CCC(C(=O)c3ccc(F)cc3)CC2)c2ccccc21` yielded an RP-LC retention time of 755 s.
For `CCn1c(=O)c(N2CCC(C(=O)NCCc3c[nH]c4ccc(Cl)cc34)CC2)nc2cccnc21` the value was 993 s.
For `CCOc1cccc(-c2noc(Cn3c(=O)n(-c4ccccc4C)c(=O)c4sccc43)n2)c1` the value was 1070 s; for `CCc1nc2c(NC(=O)c3ccc(Br)cc3)cccn2n1`, 914 s.
The result for `Cc1noc(C)c1S(=O)(=O)N1CCC(Cc2nncn2-c2ccccc2)CC1` reads 780 s; that for `COc1ccc(NS(=O)(=O)c2cn(C(C)C)c3ncccc23)cc1OC`, 876 s.
In the case of `CC(=O)Nc1ccc(CCc2nc3ccc(C(=O)NC(C)Cc4ccco4)cc3[nH]2)cc1` (stereo not given), the RP-LC retention time came out at 626 s.
The result for `O=C(NCC(c1ccco1)N1CCN(c2ccc(F)cc2)CC1)c1cnccn1` (stereo not given) reads 585 s.
The result for `COc1ccc(-c2noc(-c3nc(Cc4ccc(F)cc4)no3)n2)cc1` reads 1170 s; that for `COc1cccc(CNC(=O)c2nnc(-c3ccc(S(=O)(=O)N4CCCC4)cc3)o2)c1`, 874 s.
On to `Cn1cc(-c2ccncc2)cc1C(=O)NCc1ccc(Br)cc1`, for which the RP-LC retention time amounted to 662 s.
As to `Cc1noc(C)c1S(=O)(=O)N1CC(N(Cc2cccnc2)CC(C)C)C1`, the RP-LC retention time amounted to 706 s.
The result for `Cc1ccc(-n2ccc(=O)c(-c3nc(-c4ccc(F)c(Cl)c4)no3)n2)cc1` reads 1030 s.
For `CNC(=O)N1CCCC(c2nc(C(C)C)no2)CCNC(=O)CC1` (stereo not given) the value was 606 s.
As for `Cc1ccc(C)c(C(O)Cn2ccn3nc(-c4cccc(Br)c4)cc3c2=O)c1` (stereo not given), the RP-LC retention time came out at 1160 s.
On to `COc1cccc(CN2N=C(C(=O)N3CCCC3)S(=O)(=O)c3ccccc32)c1`, for which the RP-LC retention time is 843 s.
For `CCc1noc(NC(C)=O)c1-c1ccc(C)c(S(=O)(=O)NC2CCCCCC2)c1` the value was 909 s.
The result for `Cc1ccc2ncn(C3CCN(S(=O)(=O)c4cccc(F)c4)CC3)c(=O)c2c1` reads 909 s.
The result for `O=c1n(CCc2ccccc2)nc2ccc(S(=O)(=O)N3CCCC3)cn12` reads 868 s; that for `Cn1cc(-c2nc(C(=O)Nc3ccccc3F)cs2)c2cccnc21`, 1040 s.
Molecule `O=S(=O)(c1ccc(-n2cnnn2)cc1)N1CCN(c2ccccn2)CC1` displayed an RP-LC retention time of 596 s.
Consider `CCOc1ccc(N2CCn3c2nn(CC(=O)c2ccc(OC)cc2)c(=O)c3=O)cc1`, for which the RP-LC retention time was determined as 773 s.
For `COC1CCC12CCN(C(=O)c1conc1C)CC2` (stereo not given) the value was 679 s; for `CC(C)c1noc(-c2ccc(-n3cnc(C(=O)NCC4CC4)c3)nc2)n1`, 839 s.
For `COc1ccc(N2CCN(C(c3cccs3)C(C)NC(=O)C(=O)N3CCCC3)CC2)cc1` (stereo not given) the value was 670 s.
For `O=C(O)c1ccccc1SC1CC(=O)N(c2ccccc2OC(F)F)C1=O` (stereo not given) the value was 741 s; for `O=C(Nc1ccccc1)Nc1ccc2nnc(C3CC3)n2c1`, 703 s; for `Cc1cc(C)cc(NC(=O)N2CCCC2c2nc(-c3ccccc3C)no2)c1` (stereo not given), 1110 s.
`O=C1C2N=NN(Cc3nc(-c4ccccc4)no3)C2C(=O)N1c1ccc(F)cc1` (stereo not given) came in with an RP-LC retention time of 945 s.
For `CCc1ccc(CNC(=O)c2nc3cccnc3n(CC(C)C)c2=O)cc1` the value was 1100 s; for `CCOC(=O)C(C(=O)NCCCN1CCOCC1)C1CCCCC1` (stereo not given), 624 s.
For `CCc1nc(-c2csc(S(=O)(=O)N3CCC(C(=O)N4CCc5ccccc5C4)CC3)c2)no1` the value was 1020 s.
The result for `O=C(Cn1nc2c(N3CCSCC3)nccn2c1=O)NCCC1=CCCCC1` reads 861 s.
Consider `CC1CCN(C(=O)C2=NN(CC(=O)OC(C)C)c3ccccc3S2(=O)=O)CC1`, for which the RP-LC retention time came to 952 s.
For `CCOC(=O)c1noc2ncnc(Nc3cccc(CC)c3)c12` the value was 1060 s.
For `Cc1noc(C)c1-c1ccc(S(=O)(=O)NC2CCCCC2)cc1` the value was 959 s.
For `CCc1ccc(CNC(=O)c2cn(CC)nc2S(=O)(=O)N2CCC(C)CC2)cc1` the value was 1180 s; for `COc1cc(NC(=O)N2CCCC(Cn3c(C)nc4cccnc43)C2)cc(OC)c1` (stereo not given), 639 s.
As for `CC(C)Cc1noc(C2(F)CCN(S(=O)(=O)c3ccc(C(C)(C)C)cc3)CC2)n1`, the RP-LC retention time is 601 s.
For `COCc1nc(C2CCN(C(=O)C3CCCC3)C2)no1` (stereo not given) the value was 688 s.
Turning to `Cc1nc(-c2cc(S(=O)(=O)NCCN3CCC(C)CC3)c(C)s2)sc1C`, the RP-LC retention time turned out to be 718 s.
For `CCCCN1CCN(Cc2nc(-c3ccc(N4CCC(C)CC4)nc3)no2)CC1` the value was 644 s; for `CCN1C(=O)COc2ccc(-c3nc(NC(=O)c4ccccc4Br)sc3C)cc21`, 1010 s.
For `COC(=O)c1ccc(C(=O)Nc2cccc3c(OC)cccc23)cc1` the value was 821 s; for `CO[C@H]1C(=O)N(C(C)C)[C@H]1C1CCN(C(=O)c2cnn(C)c2)CC1`, 612 s.

The values are drawn from the METLIN SMRT retention time set (Domingo-Almenara et al. 2019).
